Tests used:
Assay in all cases: relative viability (nuclei count vs DMSO), 5 days (fraction); higher = more cells survive
Bicalutamide + Olaparib = compound: CC(O)(CS(=O)(=O)c1ccc(F)cc1)C(=O)Nc1ccc(C#N)c(C(F)(F)F)c1 [Bicalutamide] + O=C(c1cc(Cc2n[nH]c(=O)c3ccccc23)ccc1F)N1CCN(C(=O)C2CC2)CC1 [Olaparib] (partner 8 µM)
How it was run: (§1)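 Five library-drug doses in √10 steps were combined with a fixed anchor-drug dose, or a single drug was given alone, by pin tool to lung cancer cell lines in 1536-well plates the day after seeding. Nuclei were stained and counted after 5 days. Relative viability is the nuclei count in treated wells over that in vehicle wells, taken as the median of duplicate plates.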

[1] = compound: C(C(=O)C(=O)O)Br [Bromopyruvate] + CC(=O)Nc1cccc(-n2c(=O)n(C3CC3)c(=O)c3c(Nc4ccc(I)cc4F)n(C)c(=O)c(C)c32)c1 [Trametinib] (partner 0.02 µM)
How it was run: as §1

[2] = compound: C(C(=O)C(=O)O)Br [Bromopyruvate] + CCNC(=O)c1noc(-c2cc(C(C)C)c(O)cc2O)c1-c1ccc(CN2CCOCC2)cc1 [Luminespib] (partner 0.01 µM)
How it was run: as §1

[3] = compound: CC(O)(CS(=O)(=O)c1ccc(F)cc1)C(=O)Nc1ccc(C#N)c(C(F)(F)F)c1 [Bicalutamide] + CS(=O)(=O)N1CCN(Cc2cc3nc(-c4cccc5[nH]ncc45)nc(N4CCOCC4)c3s2)CC1 [Pictilisib] (partner 1 µM)
How it was run: as §1

Cell Line | relative viability (Bicalutamide + Olaparib; first compound 0.08 µM) | relative viability (Bicalutamide + Olaparib; first compound 0.253 µM) | relative viability (Bicalutamide + Olaparib; first compound 0.8 µM) | relative viability (Bicalutamide + Olaparib; first compound 2.53 µM) | relative viability ([1]; first compound 1 µM) | relative viability ([1]; first compound 3.162 µM) | relative viability ([1]; first compound 10 µM) | relative viability ([1]; first compound 31.62 µM) | relative viability ([1]; first compound 100 µM) | relative viability ([2]; first compound 1 µM) | relative viability ([2]; first compound 3.162 µM) | relative viability ([2]; first compound 10 µM) | relative viability ([2]; first compound 31.62 µM) | relative viability ([2]; first compound 100 µM) | relative viability ([3]; first compound 0.08 µM) | relative viability ([3]; first compound 0.253 µM) | relative viability ([3]; first compound 0.8 µM) | relative viability ([3]; first compound 2.53 µM)
HCC-827 | 0.63 | 0.548 | 0.704 | 0.6 | 0.51 | 0.542 | 0.579 | 0.551 | 0.568 | 0.684 | 0.607 | 1.01 | 0.886 | 0.619 | 1.01 | 0.85 | 1.1 | 1.04
HOP-62 | 0.736 | 0.38 | 0.388 | 0.349 | 0.405 | 0.343 | 0.372 | 0.408 | 0.485 | 0.887 | 0.97 | 0.84 | 0.934 | 0.9 | 0.971 | 0.806 | 0.998 | 0.614
IA-LM | 0.959 | 0.738 | 1.08 | 0.943 | – | – | – | – | – | – | – | – | – | – | 0.368 | 0.389 | 0.422 | 0.507
LC-2-ad | 0.758 | 0.713 | 0.683 | 0.697 | 0.892 | 0.904 | 0.872 | 0.958 | 0.945 | 1.02 | 1.11 | 1.21 | 1.04 | 0.843 | 0.536 | 0.459 | 0.637 | 0.502
LCLC-97TM1 | 0.356 | 0.363 | 0.434 | 0.507 | 0.193 | 0.188 | 0.2 | 0.165 | 0.277 | 0.727 | 0.792 | 0.864 | 0.708 | 0.709 | 0.256 | 0.206 | 0.228 | 0.199
LCLC-103H | 0.775 | 0.785 | 0.835 | 0.75 | 0.681 | 0.692 | 0.696 | 0.693 | 0.767 | 0.963 | 0.998 | 1.05 | 0.938 | 0.878 | 0.692 | 0.444 | 0.673 | 0.544
LK-2 | 0.629 | 0.524 | 1.12 | 0.621 | 0.742 | 0.92 | 0.872 | 0.782 | 0.519 | 0.166 | 0.182 | 0.158 | 0.161 | 0.199 | 0.591 | 0.442 | 0.754 | 0.667
LOU-NH91 | 0.899 | 0.847 | 0.976 | 0.955 | 0.79 | 0.761 | 0.799 | 0.826 | 0.866 | 0.321 | 0.316 | 0.372 | 0.348 | 0.321 | 0.537 | 0.471 | 0.549 | 0.491
LU99A | 0.268 | 0.225 | 0.259 | 0.248 | 0.521 | 0.531 | 0.621 | 0.564 | 0.661 | 0.301 | 0.313 | 0.273 | 0.248 | 0.213 | 0.295 | 0.321 | 0.364 | 0.209
